# Experimental data from patent US12084451B2, “Compositions and methods for reducing tactile dysfunction, anxiety, and social impairment” (President and Fellows of Harvard College, priority 2018, dated 2024).
# Values joined by “and” are separate entries in the source; they are usually repeats but may differ in a detail not shown here. Identical values can stand only once.
# Tests used:
# [1] = biological target: hGABAA α1β3γ2 (Homo sapiens, UniProt P14867+P18507+P28472); assay: hGABAA α1β3γ2 IonFlux HT Agonist Assay; format: cell-based; conditions: for Normalized Percentage Activation Mean: normalized to EC100 GABA (30 μM)
# Chain of hGABAA α1β3γ2 (P14867 28-456): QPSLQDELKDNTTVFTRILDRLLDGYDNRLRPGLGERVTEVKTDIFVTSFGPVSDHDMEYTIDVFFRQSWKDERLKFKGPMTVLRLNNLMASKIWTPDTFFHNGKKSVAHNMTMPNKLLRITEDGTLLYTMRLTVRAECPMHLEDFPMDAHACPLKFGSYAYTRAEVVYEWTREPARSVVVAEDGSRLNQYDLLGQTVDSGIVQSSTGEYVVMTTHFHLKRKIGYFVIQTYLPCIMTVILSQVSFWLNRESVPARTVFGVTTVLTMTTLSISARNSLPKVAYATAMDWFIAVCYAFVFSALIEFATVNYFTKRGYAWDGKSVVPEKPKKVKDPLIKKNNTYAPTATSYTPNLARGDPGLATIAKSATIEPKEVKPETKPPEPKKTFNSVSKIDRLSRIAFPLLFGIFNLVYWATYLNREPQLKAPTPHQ
# Chain of hGABAA α1β3γ2 (P28472 26-473): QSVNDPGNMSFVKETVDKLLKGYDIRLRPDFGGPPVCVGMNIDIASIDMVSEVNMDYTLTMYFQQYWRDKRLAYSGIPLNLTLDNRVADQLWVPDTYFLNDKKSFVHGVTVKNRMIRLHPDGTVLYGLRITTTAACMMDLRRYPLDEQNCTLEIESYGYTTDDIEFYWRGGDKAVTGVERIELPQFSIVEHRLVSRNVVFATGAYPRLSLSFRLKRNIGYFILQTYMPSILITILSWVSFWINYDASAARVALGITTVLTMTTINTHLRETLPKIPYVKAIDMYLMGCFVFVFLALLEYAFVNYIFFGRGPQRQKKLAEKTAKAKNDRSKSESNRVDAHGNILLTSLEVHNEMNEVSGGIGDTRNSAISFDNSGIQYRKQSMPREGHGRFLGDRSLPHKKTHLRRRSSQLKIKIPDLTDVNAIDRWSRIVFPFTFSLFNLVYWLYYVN
# Chain of hGABAA α1β3γ2 (P18507 40-475): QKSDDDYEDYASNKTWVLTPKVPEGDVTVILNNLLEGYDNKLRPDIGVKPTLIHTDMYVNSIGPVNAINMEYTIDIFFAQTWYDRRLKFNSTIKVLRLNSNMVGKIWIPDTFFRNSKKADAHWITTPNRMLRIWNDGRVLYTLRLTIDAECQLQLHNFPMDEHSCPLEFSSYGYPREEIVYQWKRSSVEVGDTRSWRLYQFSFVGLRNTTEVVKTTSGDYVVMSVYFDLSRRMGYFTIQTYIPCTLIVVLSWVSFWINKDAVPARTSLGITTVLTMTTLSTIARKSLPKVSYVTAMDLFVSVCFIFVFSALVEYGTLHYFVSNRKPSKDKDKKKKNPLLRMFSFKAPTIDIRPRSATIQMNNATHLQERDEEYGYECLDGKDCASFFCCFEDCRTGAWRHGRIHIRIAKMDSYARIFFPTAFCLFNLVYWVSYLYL
# Protocol: Ligand-gated ion channel targets were hGABAA α2β3γ2 and hGABAA α1β3γ2. Electrophysiological assays conducted to profile two compounds for agonist activities on hGABAA α2β3γ2 and seven compounds for agonist activities on hGABAA α1β3γ2 using the IonFlux HT electrophysiological platform.
# The parameters measured are described in the Data Analysis section. […] Note: The test compounds was applied over two (2) ‘experimental patterns’ in increasing concentrations.
# The supplied compound was prepared in DMSO to concentrations that were 300× the final assay concentrations. Aliquots were taken out and diluted 300× into external buffer to give the final assay concentration. At wells included a final DMSO concentration of 0.33% including all control wets.
# All recordings were obtained from a holding potential of −60 mV. The compound addition sequence that was used for all additions was the same for all assays. […] Each test concentration of compound was applied for 2 seconds followed by 60 seconds wash. The process was repeated with the next ascending concentration of test compound. The test compounds were applied over two (2) ‘experimental patterns’ in increasing concentrations (FIG. 11).
# AM data were first exported to an Excel compatible data file and then analyzed using Graph Pad Prism software.
# [2] = biological target: hGABAA α2β3γ2 (Homo sapiens, UniProt P18507+P28472+P47869); assay: hGABAA IonFlux HT PAM Assay, α2β3γ2; format: cell-based
# Chain of hGABAA α2β3γ2 (P47869 29-451): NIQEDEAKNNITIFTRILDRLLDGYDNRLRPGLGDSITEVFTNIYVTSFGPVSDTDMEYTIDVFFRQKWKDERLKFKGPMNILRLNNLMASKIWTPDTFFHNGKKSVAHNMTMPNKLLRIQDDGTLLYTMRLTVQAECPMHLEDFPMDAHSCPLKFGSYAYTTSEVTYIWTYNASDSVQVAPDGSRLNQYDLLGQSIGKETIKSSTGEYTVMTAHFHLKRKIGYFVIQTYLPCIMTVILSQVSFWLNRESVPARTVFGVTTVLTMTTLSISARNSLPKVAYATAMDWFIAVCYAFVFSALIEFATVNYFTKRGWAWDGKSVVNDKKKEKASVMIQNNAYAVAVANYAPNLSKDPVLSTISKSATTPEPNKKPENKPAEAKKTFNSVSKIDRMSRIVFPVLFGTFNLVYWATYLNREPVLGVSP
# Chain of hGABAA α2β3γ2 (P28472 26-473): as the sequence (P28472 26-473) above
# Chain of hGABAA α2β3γ2 (P18507 40-475): as the sequence (P18507 40-475) above
# Description: Ligand-gated ion channels targeted were hGABAA α1β3γ2 and hGABAA α2β3γ2.
# Electrophysiological assays conducted to profile nine (9) compounds for activities on the on channel targets listed above for Positive Allosteric Modulator (PAM) activities using the IonFlux HT electrophysiological platform.
# The parameters measured are described in the Data Analysis section. […] Open circles represent data that has been excluded from the curve fitting. Where no curve fit was possible, n/c (not calculable) is listed.
# All wells included a final DMSO concentration of 0.33% including all control wells.
# All recordings were obtained from a holding potential of −60 mV. The compound addition sequence that was used for all additions was the same for all assays. […] The process was repeated with the next ascending concentration of test compound (FIG. 1).
# All data were first exported to an Excel compatible data file and then analyzed using Graph Pad Prism software.
# [3] = system: rodent models of neuropathic pain; assay: rodent models of neuropathic pain; format: in vivo
# Description: The utility of peripherally-restricted GABAA receptor PAMs, agonists are not limited to treatment of the above indications; the compounds disclosed herein are also useful for treating touch over-reactivity and pain associated with other disease states, including Sensory Processing Disorder (SPD) and fibromyalgia, as well as mechanical allodynia associated with nerve injury, shingles, diabetic neuropathy, chemotherapy-induced neuropathy and other neuropathic pain states.
# [4] = system: Mecp2, Shank3, and Fmr1 mutant mice; assay: animal models of ASD; format: in vivo; conditions: three animal models of ASD (Mecp2, Shank3, and Fmr1 mutant mice)
# Description: These findings raise the exciting possibility that GABAA receptor agonists, which attenuate the activity of peripheral mechanosensory neurons, may be useful for treating tactile hypersensitivity and thus anxiety and social impairments in ASD patients. Treating young children with GABAA receptor agonists has traditionally been avoided because of undesirable side effects of these drugs in children. Indeed, there is great reluctance on the part of physicians to use FDA-approved GABAA receptor agonists and positive allosteric modulators because of undesirable side effects, including sedation, and serious complications associated with interference with brain development. […] Importantly, peripherally-restricted GABAA receptor agonists should not promote undesirable side effects observed with all currently used, FDA-approved GABAA receptor agonists that act in the brain.
# [5] = system: GABAA targets; conditions: previous study (US034-0003415); cited from earlier work
# [6] = system: SNL rats; assay: Rat spinal nerve ligation (SNL) model of neuropathic pain, Von frey test; format: in vivo, SD Rat; conditions: 5 mpk IP; for Von frey test 50% g Threshold, group mean: N 8
# Protocol: Chung surgery were conducted on anesthetized rats. Rats were habituated in the testing environment for 15 minutes before allodynia measurement (2-3 times). Pre-dose baseline were taken on day 9 post surgery. Rats that don't show allodynic response at this point were excluded. SNL rats with a paw withdrawal threshold >4 g. The animals were grouped according to 50% paw withdrawal threshold (g) and weight. The animals were dosed test articles and vehicle according to the dose protocol. On the testing day (Day 9), rats were dosed with testing articles with 16 min interval between groups. Rats were measured for allodynic response at 0.75, 1.5, 3 h time point post dosing. All values will be expressed as mean±S.E.M. The significance of the differences among groups will be evaluated by two-way ANOVA followed by Dunnett's test using graphpad Prism 6 software. A p value of less than 0.05 is considered statistically significant.
smiles,measurement,setting,value
O=C(O)C1=CCNCC1 [Isoguvacine],Normalized Percentage Activation Mean,[1]; 0.3 μM,1.61%
same,Normalized Percentage Activation Mean,[1]; 1 μM,2.18%
same,Normalized Percentage Activation Mean,[1]; 3 μM,6.83%
same,Normalized Percentage Activation Mean,[1]; 10 μM,30.46%
same,Normalized Percentage Activation Mean,[1]; 30 μM,65.63%
same,Normalized Percentage Activation Mean,[1]; 100 μM,84.77%
same,Normalized Percentage Activation Mean,[1]; 300 μM,92.72%
same,Normalized Percentage Activation Mean,[1]; 10000 μM,93.46%
same,EC50,"[1]; agonist activation of channel currents, read-out: Estimated EC50",19.7 µM
same,(%) Control mean,[2]; 0.001 μM + EC20 GABA,95.4 % Control
same,(%) Control n1,[2]; 0.001 μM + EC20 GABA,94.5 % Control
same,(%) Control n2,[2]; 0.001 μM + EC20 GABA,96.3 % Control
same,(%) Control mean,[2]; 0.01 μM + EC20 GABA,93.2 % Control
same,(%) Control n1,[2]; 0.01 μM + EC20 GABA,90.4 % Control
same,(%) Control n2,[2]; 0.01 μM + EC20 GABA,96.0 % Control
same,(%) Control mean,[2]; 0.1 μM + EC20 GABA,88.9 % Control
same,(%) Control n1,[2]; 0.1 μM + EC20 GABA,85.9 % Control
same,(%) Control n2,[2]; 0.1 μM + EC20 GABA,91.8 % Control
same,(%) Control mean,[2]; 1 μM + EC20 GABA,92.3 % Control
same,(%) Control n1,[2]; 1 μM + EC20 GABA,95.4 % Control
same,(%) Control n2,[2]; 1 μM + EC20 GABA,89.3 % Control
same,(%) Control mean,[2]; 10 μM + EC20 GABA,45.7 % Control
same,(%) Control n1,[2]; 10 μM + EC20 GABA,55.0 % Control
same,(%) Control n2,[2]; 10 μM + EC20 GABA,36.4 % Control
same,(%) Control mean,[2]; 100 μM + EC20 GABA,6.9 % Control
same,(%) Control n1,[2]; 100 μM + EC20 GABA,8.4 % Control
same,(%) Control n2,[2]; 100 μM + EC20 GABA,5.3 % Control
same,Mean Maximal Effect (% of Control),[2]; normalized to baseline peak current induced by EC20 GABA (0.8 μM) for 2 seconds,95 % of Control
same,Estimated EC50,[2]; positive modulation of EC20 GABA current,n/c*
same,effect on tactile over-reactivity (mechanical allodynia),[3],reduces tactile over-reactivity (mechanical allodynia)
same,"effect on tactile hypersensitivity, anxiety-like behaviors and social impairments",[4],"improves tactile hypersensitivity, anxiety-like behaviors and social impairments"
same,agonist activity against GABAA targets,[5],exhibited agonist activity
same,"Von frey test 50% g Threshold, group mean","[6]; 0 Hour (pre-dose baseline), 5 mg/kg",2.32 g and 2.3 ± 0.33 g
same,"50% g Threshold, individual animal","[6]; 0 Hour (pre-dose baseline, day 9 post surgery), 5 mg/kg",0.99 g and 1.10 g and 1.85 g and 2.23 g and 2.81 g and 3.00 g and 3.31 g (2×)
same,"50% g Threshold, individual animal","[6]; 0.75 Hour post dosing, 5 mg/kg",1.31 g (2×) and 2.37 g (2×) and 2.81 g and 1.56 g (2×) and 0.99 g
same,"Von frey test 50% g Threshold, group mean","[6]; 0.75 Hour, 5 mg/kg",1.78 g and 1.8 ± 0.23 g
same,"50% g Threshold, individual animal","[6]; 1.5 Hour post dosing, 5 mg/kg",1.85 g (3×) and 2.37 g and 0.82 g and 2.81 g and 1.56 g and 2.64 g
same,"Von frey test 50% g Threshold, group mean","[6]; 1.5 Hour, 5 mg/kg",1.97 g and 2.0 ± 0.23 g
same,"50% g Threshold, individual animal","[6]; 3 Hour post dosing, 5 mg/kg",2.81 g and 6.74 g and 7.91 g and 3.33 g and 5.15 g and 4.34 g and 5.77 g and 3.31 g
same,"Von frey test 50% g Threshold, group mean",[6]; 3 Hour,4.9 ± 0.64 g
same,analgesia effect,[6]; 3 hour time point,significant analgesia effect
